Assay results reported in patent US20240418723A1, “SEQUENTIAL TREATMENTS AND BIOMARKERS TO REVERSE RESISTANCE TO KINASE INHIBITORS” (Queen Mary University of London, priority 2021, published 2024).

Legend:
P31/Fuj AML cells = assay: Sequential treatment of P31/Fuj cells (ATRA or LSD1 inhibitor 5 days, then MEKi 3 days; also co-treatment and reverse treatment): cell viability, cell number, apoptosis, CDI; format: cell-based
Experimental: (§1) The Bliss independence model was used to derive coefficients of drug interaction (CDI) values, where CDI <1 indicates significant priming by the […] (synergistic effect).
(§2) For the proliferation/viability assays, cells were seeded in T75 flasks (0.5×10^6 cells/mL of RPMI/FBS medium) and exposed for 5 days to either vehicle or epigenetic modifier. Unless otherwise specified, the final concentration for GSK2879552 (LSD1i), […] (EZH2i), pinometostat (DOT1Li) and ATRA was 1 μM while for decitabine (DNMTAi) and vorinostat (HDACi) was 100 nM; all epigenetic inhibitors were diluted in DMSO, while ATRA was diluted in Et-OH. Vehicle concentration was kept at 0.1%. […] The final concentration of DMSO was kept at 0.1%. Finally, cells were transferred to 96-well plates (100 μL per well in 3 technical replicates per condition) and cell viability and proliferation were assessed using Guava and ApoTox-Glo Triplex analyses, as indicated below.
For Guava analysis, cells were stained with Guava ViaCount reagent (Luminex #4000-0040) in 96-well plates, by mixing 150 μL of cell suspension with 75 μL of reagent, and left to incubate for a minimum of 10 minutes in the dark, after which they were processed through a Guava easyCyte flow cytometer (Luminex #0500-5005). Flow cytometry data were analysed using CytoSoft (v2.5.7). Viability and cell number values were expressed relative to vehicle control.
For ApoTox-Glo analysis, cell suspensions were transferred to opaque 96-well plates (100 μL per well) and viability and apoptosis measured using ApoTox-Glo Triplex Assay (Promega #G6320). 20 μL of Viability/Cytotoxicity reagent (containing GF-AFC and bis-AAF-R110 substrates) were added to each well, then incubated at 37° C. for 1 hour. Live cell and cytotoxicity outputs were measured on FLUOstar Omega microplate reader (BMG Labtech). To obtain the live cell output, fluorescence was measured at 355EX/520EM (wavelengths in nm); for the cytotoxicity output, fluorescence was measured at 485EX/520EM. Following this, 100 μL of Caspase-Glo 3/7 reagent were added to each well and incubated at 25° C. for 1 hour. Luminescence was then measured on FLUOstar Omega microplate reader (BMG Labtech). The fluorescence and luminescence signals thus obtained were corrected to the respective background controls (culture medium with no cells). Relative cell number values were obtained by normalising live cell outputs to vehicle control. Apoptosis values were obtained by dividing luminescence outputs to the respective live cell outputs, then normalising to vehicle control.
The extent of drug interaction was calculated in Microsoft Excel 2016 using the CDI formula AB/(A*B), where AB is the normalized reduction in cell viability of the sequential treatment, and A and B are the effects of single treatments. Statistical significance of CDI values for each AML sample was determined using a one sample t-test (base R package) with the null hypothesis being that the mean Log2(CDI) equals 0.

AML cell lines = assay: Small-scale drug screens: epigenetic antagonist 5 days followed by kinase inhibitor 3 days, cell viability/proliferation, CDI; format: cell-based
Experimental: as §1, §2
For Guava analysis, cells were stained with Guava ViaCount reagent (Luminex #4000-0040) in 96-well plates, by mixing 150 μL of cell suspension with 75 μL of reagent, and left to incubate for a minimum of 10 minutes in the dark, after which they were processed through a Guava easyCyte flow cytometer (Luminex #0500-5005). Flow cytometry data were analysed using CytoSoft (v2.5.7). […]

primary AML cells = assay: Ex-vivo sequential treatment of primary AML blasts co-cultured on MS-5 stromal feeder layer, Guava ViaCount, CDI; format: cell-based, human
Experimental: We then examined whether, besides cell lines, LSD1i could also sensitise primary AML to kinase inhibitor treatment. We obtained CDI values from 17 AML blasts samples (6 normal, 5 complex and 6 MLL karyotypes) treated for 5 days with LSD1i followed by 3 days with either MEKi, PKC/FLT3i or DMSO control (FIGS. 2, H and I). Primary AML cells were cultured and treated in the presence of a feeder layer of bone marrow stromal cells, which, under control conditions, kept cells viable and proliferating throughout the course of the experiment.
Umbilical cord bloods were purchased from Anthony Nolan. Mononuclear cells (MNCs) were isolated by Ficoll prior red blood cells (RBC) lysis buffer (BioLegend, catalog #420301). Cells were then stained with CD34 immunomagnetic positive selection kit (EasySep™ Human CD34 Positive Selection Kit II, StemCell technologies, catalog #17856, according to manufacturer instructions). Purity of CD34^+ cells isolated from MNCs was assessed by flow cytometry prior to long term storage in liquid nitrogen. For AML samples, patients gave informed consent for the storage and use of their blood cells for research purposes. Experiments were performed in accordance with the Local Research Ethics Committee, as previously described. Mononuclear cells from peripheral blood or bone marrow biopsies were isolated in the BCI tissue bank facility and stored in liquid nitrogen.
Cell vials were thawed in 37° C. water bath and contents transferred to 15 mL Falcon tubes containing 4 mL of pre-warmed FBS with 40 ng/mL DNase (Sigma Aldrich D4513-1VL). Suspension was centrifuged at 300×g for 8 minutes, then supernatant was removed and cells resuspended in MyeloCult H5100 medium (Stemcell Technologies #05150) containing 1% P/S and supplemented with human IL-3 (Peprotech #200-03), human G-CSF (Peprotech #300-23) and human TPO (#300-18), each to a final concentration of 20 ng/mL. […]

[1] = LSD1i and MEKi co-treatment 3 days, P31/Fuj (FIG. 10B)

`O=C(O)c1ccc(CN2CCC(CN[C@@H]3C[C@H]3c3ccccc3)CC2)cc1` [GSK2879552] was tested, and the “Log2 CDI, reverse treatment” value (P31/Fuj AML cells; 3-day pre-treatment with MEKi followed by 5-day LSD1i, additive to strongly antagonistic, P31/Fuj) was greater than 0, the “Log2 CDI based on cell number and apoptosis, 5+3 days sequential treatment” value (P31/Fuj AML cells; LSD1i 5 days then MEKi 3 days, all concentrations above 10 nM, strongly synergistic, P31/Fuj (FIG. 10A)) was “below 0” and the “sensitisation to the effects of MEKi (suppressing proliferation and inducing apoptosis)” value (P31/Fuj AML cells; LSD1i 5 days then MEKi 3 days, dose-dependent manner, P31/Fuj cells (FIG. 2E)) was “sensitised P31/Fuj cells to the effects of MEKi”. For the same molecule, the “CDI for apoptosis, 3-day co-treatment” value (P31/Fuj AML cells; [1]) was “mildly synergistic”, the “CDI for proliferation, 3-day co-treatment” value (P31/Fuj AML cells; [1]) was “near additive” and the “number of AML cell lines sensitised to midostaurin, pictilisib or trametinib” value (AML cell lines; LSD1i pre-treatment, out of the 12 AML cell lines tested (FIG. 2D)) was 9. The “-Log2 CDI (coefficient of drug interaction), sensitisation to kinase inhibitor treatment” value (AML cell lines; epigenetic antagonist 5 days, then MEK, mTOR or PKC inhibitor 3 days, cell viability, Bliss independence, CDI <1 = synergistic (FIG. 2C)) was “one of the most potent sensitisers to kinase inhibitor treatment”, the “number of primary AML cases primed for MEKi treatment” value (primary AML cells; LSD1i 5 days then MEKi 3 days, of the 17 primary AML cases (FIG. 2H)) was 8 and the “number of primary AML cases primed for PKC/FLT3i treatment” value (primary AML cells; LSD1i 5 days then PKC/FLT3i (midostaurin) 3 days, out of the 14 tested (FIG. 2I)) was 5. For the same molecule, the “proportion of AML cases in which LSD1i->MEKi sequential treatment may be particularly effective” value (primary AML cells; LSD1i->MEKi sequential treatment, primary AML) was “about 50%”.
